Here are results for 7 compounds from US9932479B2, “Dyes and compositions, and processes for using same in analysis of protein aggregation and other applications” (Enzo Biochem, Inc., priority 2009, dated 2018).

The target of data set [1] is T1, recombinant human alpha-synuclein (ASN) aggregate (Homo sapiens, UniProt P37840).
T1 construct: purchased Sigma-Aldrich
In words: Fluorescence excitation and emission spectra of dye in the presence of aggregated alpha-synuclein. It is filed as binding. Conditions: for In the presence of aggregate: Emission wavelength / In the presence of aggregate: Excitation wavelength: 1 μM aggregated ASN, 50 mM Tris-HCl, pH 7.8, 10 μM dye. As for the experimental part:
(§1) Fluorescent readings were carried out in 50 mM Tris-HCl, pH 7.8 using 10 μM dye. […] Fluorescence excitation and emission spectra were collected on a Cary Eclipse fluorescence spectrophotometer (Varian, Australia). Fluorescence spectra were measured with excitation and emission slit widths set to 5 nm, and at a constant PMT voltage. Spectroscopic measurements were performed in standard quartz cells. All measurements were made at the respective excitation maxima of each dye. All measurements were carried out at room temperature.

The test system of a further data set is Goat anti-mouse IgG. In words: High-throughput protein formulation optimization: effect of excipients on IgG aggregation at 50° C., S-25/Tol3 readout. Format: biochemical. Conditions: 0.2% Triton X-100; 50° C. for 6 hours. As to the method: (A). Goat anti-mouse IgG was diluted in sodium acetate, pH 4.5, then mixed with the excipients shown in FIG. 10 A giving a final concentration of 400 mM sodium acetate, 18 μM IgG and the excipient concentration shown in the Table 2. This mixture was heated to 50° C. for 6 hours. At this time the protein solution was diluted two-fold to give a final concentration of 50 mM Histidine buffer, originally pH 7, 2.5 μM S-25, 2.5 μM Tol3 and 9 μM IgG. After 30 minutes of incubation on the shaker, the fluorescence intensity was recorded on the plate reader (FLUOstar Optima). The fluorescence intensity from each individual excipient was then compared with that without any excipient (Value set as 1.0) as shown on the top of the corresponding excipient bar in FIG. 12 A.
(B). In the control plate, the IgG was added to the plate, at the same volume and concentration given above (Example 17A) in 400 mM Sodium Acetate. This mixture was heated to 50° C. for 6 hours, as described above. After 6 hours, the excipient was added followed by S-25 and Tol3 to give all the final concentrations as shown in Example 17A. Similar to the sample plate, the fluorescence intensity from individual excipients was also compared with that from water without any excipient (Values set as 1.0) to obtain the relative fluorescent intensity as shown on the top of the corresponding excipient bar in FIG. 12B.
(C). […]

A short description of data set [2]: Fluorescence excitation and emission spectra of dye freely dissolved in buffer. Format: physicochemical. The conditions noted are these: 50 mM Tris-HCl, pH 7.8, 10 μM dye, room temperature. As for the experimental part: as §1
Data set [3] deals with goat-anti-mouse IgG aggregate. In words: Fluorescence enhancement (aggregate/native IgG) in the presence of excipients. Conditions: for Fluorescence enhancement (aggregate/native IgG): 2.8 μM IgG, 0.625 μM dye; for Fluorescence enhancement (aggregate/native IgG), Average: Average over all excipient conditions. It is filed as binding. As for the experimental part: IgG aggregate was prepared by adjusting 5.83 mg/ml of purified goat-anti-mouse IgG (H&L, Pel Freez, Rogers, Ark.) to pH 2.7 using HCl and incubating at 22° C. for 24 hours. The assay was performed using 2.8 μM IgG, either native or aggregated, and a dye concentration of 0.625 μM. The protein and dye were mixed together for 15 minutes at 22° C., then this was further incubated in the presence of the excipients shown in the table. The fluorescence intensity of S-25, Tol3 and Y2150 were determined with a FLUOstar OPTIMA plate reader (BMG LABTECH) at excitation wavelength of 550 nm and emission wavelength of 610 nm; while the fluorescence intensity for Thioflavin-T was determined using a SpectraMAX GeminiXS (Molecular device, with Softmax Pro 7.0) using an excitation wavelength of 435 nm and emission wavelength of 495 nm. The fluorescence enhancement (aggregate/native IgG) is shown.

Take `CCN(CC)c1ccc(/C=C/c2cc[n+](Cc3ccccc3C[n+]3ccc(/C=C/c4ccc(N(CC)CC)cc4)cc3)cc2)cc1.[Br-].[Br-]` [Yat 2148]: in data set [1], the “In the presence of aggregate: Emission wavelength” value is given as 625 nm and the “In the presence of aggregate: Excitation wavelength” value turned out to be 553 nm.
Taken in the same sequence, the figures for `CN(C)c1ccc(/C=C/c2cc[n+](Cc3ccccc3C[n+]3ccc(/C=C/c4ccc(N(C)C)cc4)cc3)cc2)cc1.[Br-].[Br-]` [Dye S43] were 623 nm and 550 nm.
For the compound Triton X-100, the “Effect on aggregation of IgG (fluorescence ratio sample plate / control plate)” value with Goat anti-mouse IgG is “induce aggregation of IgG”.
On to `CCN(CC)c1ccc(/C=C/c2cc[n+](CCCC[n+]3ccc(/C=C/c4ccc(N(CC)CC)cc4)cc3)cc2)cc1.[I-].[I-]` [Yat 2134], for which, in data set [2], the “Dye freely dissolved in buffer: Emission wavelength” value is listed as 620 nm and the “Dye freely dissolved in buffer: Excitation wavelength” value stood at 500 nm. Also, in data set [1], the “In the presence of aggregate: Emission wavelength” value amounted to 613 nm and the “In the presence of aggregate: Excitation wavelength” value came out at 535 nm.
For the compound `CCN(CC)c1ccc(/C=C/c2cc[n+](CCCCCCCCCC[n+]3ccc(/C=C/c4ccc(N(CC)CC)cc4)c(C)c3)cc2C)cc1` [Yat 2150], the “Dye freely dissolved in buffer: Emission wavelength” value in data set [2] is 612 nm. Besides, the “Dye freely dissolved in buffer: Excitation wavelength” value in data set [2] came out at 485 nm. In addition, the “In the presence of aggregate: Emission wavelength” value in data set [1] turned out to be 610 nm. For the same compound, the “In the presence of aggregate: Excitation wavelength” value in data set [1] is listed as 515 nm. Besides, the “Fluorescence enhancement (aggregate/native IgG)” value in data set [3] (Ammonium Sulfate, 10 mM) was 12.4 fold; in data set [3] (Ammonium Sulfate, 100 mM), 12.5 fold; in data set [3] (Ammonium Sulfate, 300 mM), 14.6 fold; in data set [3] (Arginine, 200 mM), 14.4 fold; in data set [3] (Arginine, 500 mM), 14.3 fold; in data set [3] (Ascoric Acid, 1 mM) it was 14.5 fold. The “Fluorescence enhancement (aggregate/native IgG)” value was found to be 12.4 fold in data set [3] (Calcium Chloride, 10 mM); 14.7 fold in data set [3] (Calcium Chloride, 50 mM); 13.9 fold in data set [3] (Calcium Chloride, 200 mM); 11.3 fold in data set [3] (DTT, 1 mM); 12.5 fold in data set [3] (Glycine, 0.5%); 19.0 fold in data set [3] (Glycine, 2%). Also, the “Fluorescence enhancement (aggregate/native IgG)” value in data set [3] (Lactose, 100 mM) came out at 17.5 fold; in data set [3] (Lactose, 300 mM), 31.0 fold; in data set [3] (Mannitol, 100 mM), 11.2 fold; in data set [3] (Mannitol, 300 mM) it was 13.8 fold; in data set [3] (Mannitol, 600 mM), 17.7 fold; in data set [3] (Sodium Chloride, 10 mM), 14.4 fold. Moreover, the “Fluorescence enhancement (aggregate/native IgG)” value in data set [3] (Sodium Chloride, 100 mM) was 11.3 fold; in data set [3] (Sodium Chloride, 1000 mM), 15.0 fold; in data set [3] (Sorbitol, 100 mM), 17.3 fold; in data set [3] (Sorbitol, 300 mM) it was 15.6 fold; in data set [3] (Sorbitol, 600 mM) it was 18.7 fold; in data set [3] (Trehalose, 100 mM), 14.0 fold. Moreover, the “Fluorescence enhancement (aggregate/native IgG)” value in data set [3] (Trehalose, 300 mM) was 19.4 fold; in data set [3] (Trehalose, 600 mM) it was 18.9 fold; in data set [3] (Tween 20, 0.01%), 5.5 fold; in data set [3] (Tween 20, 0.2%), 2.6 fold; in data set [3] (X100, 0.01%), 4.1 fold; in data set [3] (X100, 0.2%) it was 2.6 fold. In data set [3] (X100, 1%), the “Fluorescence enhancement (aggregate/native IgG)” value is listed as 1.7 fold. Moreover, the “Fluorescence enhancement (aggregate/native IgG), Average” value in data set [3] is 14.8 fold.
As for `CCN(CC)c1ccc(/C=C/c2cc[n+](CCOCC[n+]3ccc(/C=C/c4ccc(N(CC)CC)cc4)cc3)cc2)cc1.[I-].[I-]` [Yat 2149], in data set [2], the “Dye freely dissolved in buffer: Emission wavelength” value worked out at 614 nm and the “Dye freely dissolved in buffer: Excitation wavelength” value stood at 502 nm. Further, in data set [1], the “In the presence of aggregate: Emission wavelength” value is on record as 617 nm and the “In the presence of aggregate: Excitation wavelength” value was determined as 534 nm.
Regarding `Cc1ccc2c(c1)sc(-c1ccc(N(C)C)cc1)[n+]2C.[Cl-]` [Thioflavin-T, Thioflavin T, reference compound], the “Dye freely dissolved in buffer: Emission wavelength” value in data set [2] is given as 472 nm. For the same compound, the “Dye freely dissolved in buffer: Excitation wavelength” value in data set [2] was 400 nm. The “In the presence of aggregate: Emission wavelength” value in data set [1] is given as 480 nm. For the same compound, the “In the presence of aggregate: Excitation wavelength” value in data set [1] is on record as 447 nm. In data set [1] (as seen in Table 1), the Stokes shift is on record as 23 nm. Moreover, the “Fluorescence enhancement (aggregate/native IgG)” value was 2.8 fold in data set [3] (Ammonium Sulfate, 10 mM); 2.6 fold in data set [3] (Ammonium Sulfate, 100 mM); 1.4 fold in data set [3] (Ammonium Sulfate, 300 mM); 1.4 fold in data set [3] (Arginine, 200 mM); 2.0 fold in data set [3] (Arginine, 500 mM); 1.5 fold in data set [3] (Ascoric Acid, 1 mM). Moreover, the “Fluorescence enhancement (aggregate/native IgG)” value is given as 3.1 fold in data set [3] (Calcium Chloride, 10 mM); 1.5 fold in data set [3] (Calcium Chloride, 50 mM); 1.7 fold in data set [3] (Calcium Chloride, 200 mM); 1.6 fold in data set [3] (DTT, 1 mM); 3.1 fold in data set [3] (Glycine, 0.5%); 3.2 fold in data set [3] (Glycine, 2%). The “Fluorescence enhancement (aggregate/native IgG)” value in data set [3] (Lactose, 100 mM) was found to be 1.2 fold; in data set [3] (Lactose, 300 mM) it was 1.4 fold; in data set [3] (Mannitol, 100 mM), 3.1 fold; in data set [3] (Mannitol, 300 mM) it was 3.7 fold; in data set [3] (Mannitol, 600 mM), 1.8 fold; in data set [3] (Sodium Chloride, 10 mM), 1.6 fold. For the same compound, the “Fluorescence enhancement (aggregate/native IgG)” value in data set [3] (Sodium Chloride, 100 mM) was determined as 1.3 fold; in data set [3] (Sodium Chloride, 1000 mM), 2.7 fold; in data set [3] (Sorbitol, 100 mM) it was 3.0 fold; in data set [3] (Sorbitol, 300 mM), 1.9 fold; in data set [3] (Sorbitol, 600 mM), 3.6 fold; in data set [3] (Trehalose, 100 mM), 2.2 fold. For the same compound, the “Fluorescence enhancement (aggregate/native IgG)” value in data set [3] (Trehalose, 300 mM) is 0.2 fold; in data set [3] (Trehalose, 600 mM), 4.8 fold; in data set [3] (Tween 20, 0.01%), 4.6 fold; in data set [3] (Tween 20, 0.2%), 2.6 fold; in data set [3] (X100, 0.01%), 5.3 fold; in data set [3] (X100, 0.2%), 6.6 fold. Further, in data set [3] (X100, 1%), the “Fluorescence enhancement (aggregate/native IgG)” value was 3.4 fold. Further, in data set [3], the “Fluorescence enhancement (aggregate/native IgG), Average” value is listed as 2.9 fold.
